The record followed here is patent US20260364182A1, “PROTEOLYSIS-TARGETING CHIMERAS AGAINST THE PAPAIN-LIKE PROTEASE OF SARS-COV-2” (Tocris Cookson Limited, priority 2022, published 2026).

SMILES strings stand for the structures. pEC50, pIC50: −log10 of the molar value. Where only a bound is given, the exact number is not on record here.

One may read the pIC50 as −log10 of the IC50, conventionally taken in molar units. High values mean a small IC50, low ones a large IC50. For orientation: pEC50 means the EC50 on a negative log10 scale, so that one unit is a factor of ten.

The target of one assay is T1, SARS-CoV-2 PLpro (Severe acute respiratory syndrome coronavirus 2, UniProt P0DTD1).
T1 construct: The papain-like protease domain (PLpro) of SARS-CoV-2 (SCoV2)
Kind of assay: IC50 inhibitory assay, fluorogenic substrate cleavage by PLpro. In kind it is biochemical. The conditions noted are these: SARS-CoV-2 PLpro 0.1 μM; substrate 10 μM; pH 8.1; 37 °C; 10 min preincubation. The method, then:
The inhibitory activities of compounds against SARS-CoV-2 PLpro were determined in a reaction buffer containing 20 mM HEPES, 40 mM NaCl, 5% glycerol, 2 mM DTT (freshly added before the measurements), pH 8.1, at 37 °C. A fluorescent substrate of SARS-CoV-2 PLpro (Z-Arg-leu-Arg-Gly-Gly-[…]AMC; Biosyntan, Berlin) was used, and the fluorescence signal of the cleaved substrate was monitored using a Tecan Spark® fluorescence spectrophotometer at an […] wavelength of 460/360 nm. SARS-CoV-2 PLpro (10 μL per well) was pipetted into a 96-well plate together with reaction buffer reaction buffer (50 μL per well, final enzyme concentration: 0.1 μM). Compounds (10 μL per well) were added at varying concentrations, and plates incubated at 37 °C for 10 mins. Finally, the reaction was initiated by adding 30 μL of the substrate (final concentration: 10 μM) dissolved in the reaction buffer.
FIG. 1: PROTAC and parent ligand for SARS-CoV-2 PLpro in a binary IC50 experiment. C10778A PROTAC (top left), comprising a SARS-CoV-2 PLpro targeting ligand C10778B (bottom left) connected to thalidomide via a C3 alkyl linker. IC50 values have been determined in an in vitro inhibitory binding assay whereby the fluorescence signal resulting from cleavage of a fluorogenic substrate by PLpro is measured. Inhibition of PLpro is associated with reduced cleavage of the fluorogenic substrate. […] Assay conditions: experiments were performed in 20 mM HEPES buffer containing 40 mM NaCl 5% glycerol, 2 mM DTT at pH 8.1. A fluorogenic substrate for PLpro (Z-Arg-leu-Arg-Gly-Gly-AMC) was used to determine the inhibition rate of compounds. Final DMSO concentration in each reaction was 1%. Measurements were performed in triplicate.

The subject of assay [1] is SARS-CoV-2. The assay can be described thus: Antiviral assay in infected Vero E6 cells (ATP quantification, Cell Titer Glo). The conditions noted are these: Severe acute respiratory syndrome coronavirus 2, Vero C1008, 72 h; for inhibition at 10 µM: read-out: Antiviral Activity, 10 uM (cell viability assay), 10 uM; for inhibition at 10 µM / inhibition at 50 µM: Vero E6 cells, MOI 0.05, 72 h; for inhibition at 50 µM: read-out: Antiviral Activity, 50 uM (cell viability assay), 50 uM. In general terms: ATP-based viability assays read luminescence as a measure of living cells.
Description: Vero E6 cells (2×10^4/well) were seeded in 96 well plates one day before the experiment. Pre-treatment, the medium was removed and compounds were added at concentrations varying from 0.1-100 μM. After 24 h incubation, the medium was removed and cells were infected with MOI 0.05 SARS-CoV-2 SARS-CoV2/ZG/297-20. After 1 h infection, the viruses were removed and the same concentration of compounds were added back into the cells. After 72 h incubation at 37 °C, EC50 measurements were made using ATP quantification (Cell Titer Glo).

Assay [2] relates to SARS-CoV-2. Kind of assay: Plaque reduction assay in Vero E6 cells. The format is cell-based. The conditions noted are these: MOI 0.1. For orientation: Plaque reduction counts the foci of infection that form in a cell layer.

On SARS-CoV-2 PLpro, `C[C@H](c1cccc2ccccc12)N1CCC(C(=O)NCc2cc(F)cc(NC(=O)N3CCN(CCOCCOCCOc4cccc5c4C(=O)N(C4CCC(=O)NC4=O)C5=O)CC3)c2)CC1` (some centres unmarked) [TS420] had a pIC50 greater than 5.00. In the assay on SARS-CoV-2 [1], the inhibition at 10 µM was less than 25% and the inhibition at 50 µM was less than 0%.
In the same order, the values of `C[C@H](c1cccc2ccccc12)N1CCC(C(=O)NCc2cc(F)cc(NC(=O)N3CCN(CCOCCOCCOCCOc4cccc5c4C(=O)N(C4CCC(=O)NC4=O)C5=O)CC3)c2)CC1` (some centres unmarked) [TS423] are greater than 5.00, less than 25% and less than 0%.
For `C[C@H](c1cccc2ccccc12)N1CCC(C(=O)NCc2cc(F)cc(NC(=O)N3CCN(CCOCCOc4cccc5c4C(=O)N(C4CCC(=O)NC4=O)C5=O)CC3)c2)CC1` (some centres unmarked) [TS424], in that order: greater than 5.00, less than 0% and less than 0%.
For `C[C@H](c1cccc2ccccc12)N1CCC(C(=O)NCc2cc(F)cc(NC(=O)N3CCN(CCCCCCOc4cccc5c4C(=O)N(C4CCC(=O)NC4=O)C5=O)CC3)c2)CC1` (some centres unmarked) [TS444], in that order: greater than 5.00, less than 25% and less than 25%.
On SARS-CoV-2 PLpro, `C[C@H](c1cccc2ccccc12)N1CCC(C(=O)NCc2cc(F)cc(NC(=O)N3CCN(CCOc4cccc5c4C(=O)N(C4CCC(=O)NC4=O)C5=O)CC3)c2)CC1` (some centres unmarked) [TS445] showed a pIC50 greater than 6.00. For the same compound, in the assay on SARS-CoV-2 [1], the inhibition at 10 µM was less than 25% and the inhibition at 50 µM was less than 25%.
On to `C[C@H](c1cccc2ccccc12)N1CCC(C(=O)NCc2cc(F)cc(NC(=O)N3CCN(CCCCCCCCOc4cccc5c4C(=O)N(C4CCC(=O)NC4=O)C5=O)CC3)c2)CC1` (some centres unmarked) [TS446], for which the pIC50 against SARS-CoV-2 PLpro was less than 4.60. Further, in the assay on SARS-CoV-2 [1], the inhibition at 10 µM was less than 50% and the inhibition at 50 µM is greater than 75%.
In the same order, the values of `C[C@H](c1cccc2ccccc12)N1CCC(C(=O)NCc2cc(F)cc(NC(=O)N3CCN(CCCCOc4cccc5c4C(=O)N(C4CCC(=O)NC4=O)C5=O)CC3)c2)CC1` (some centres unmarked) [TS452] are greater than 5.00, less than 0% and less than 0%.
In the same order, the values of `C[C@H](c1cccc2ccccc12)N1CCC(C(=O)NCc2cc(F)cc(NC(=O)N3CCN(CCOc4ccc5c(c4)C(=O)N(C4CCC(=O)NC4=O)C5=O)CC3)c2)CC1` (some centres unmarked) [TS499] are greater than 6.00, less than 25% and less than 25%.
As for `C[C@H](c1cccc2ccccc12)N1CCC(C(=O)NCc2cc(F)cc(NC(=O)N3CCN(CCCCCCCCOc4ccc5c(c4)C(=O)N(C4CCC(=O)NC4=O)C5=O)CC3)c2)CC1` (some centres unmarked) [TS516], the pIC50 against SARS-CoV-2 PLpro was 4.60 to 5.00. Also, the “plaque reduction (viable virus, in words)” value in the assay with SARS-CoV-2 [2] is given as “efficiently reduces viable virus”. Also, in the assay on SARS-CoV-2 [1], the pEC50 was 5.36, the inhibition at 10 µM was less than 50% and the inhibition at 50 µM is greater than 75%.
In turn, `C[C@H](c1cccc2ccccc12)N1CCC(C(=O)NCc2cc(F)cc(NC(=O)N3CCN(CCNC(=O)COc4ccc(C5CCC(=O)NC5=O)cc4)CC3)c2)CC1` (some centres unmarked) [TS519] gave a pIC50 at SARS-CoV-2 PLpro greater than 5.00. Further, in the assay on SARS-CoV-2 [1], the inhibition at 10 µM was less than 25% and the inhibition at 50 µM is less than 25%.
`C[C@H](c1cccc2ccccc12)N1CCC(C(=O)NCc2cc(F)cc(NC(=O)N3CCN(CCCCNC(=O)COc4ccc(C5CCC(=O)NC5=O)cc4)CC3)c2)CC1` (some centres unmarked) [TS526] had a pIC50 on SARS-CoV-2 PLpro greater than 5.00. In addition, in the assay with SARS-CoV-2 [1], the inhibition at 10 µM is less than 0% and the inhibition at 50 µM was less than 25%.
In the same order, the values of `C[C@H](c1cccc2ccccc12)N1CCC(C(=O)NCc2cc(F)cc(NC(=O)N3CCN(CCCCCCNC(=O)COc4ccc(C5CCC(=O)NC5=O)cc4)CC3)c2)CC1` (some centres unmarked) [TS529] are greater than 5.00, less than 75% and less than 75%.
For `C[C@H](c1cccc2ccccc12)N1CCC(C(=O)NCc2cc(F)cc(NC(=O)N3CCN(CCCCOc4ccc5c(c4)C(=O)N(C4CCC(=O)NC4=O)C5=O)CC3)c2)CC1` (some centres unmarked) [TS530], in that order: greater than 5.00, less than 25% and less than 75%.
For `C[C@H](c1cccc2ccccc12)N1CCC(C(=O)NCc2cc(F)cc(NC(=O)N3CCN(CCCCCCOc4ccc5c(c4)C(=O)N(C4CCC(=O)NC4=O)C5=O)CC3)c2)CC1` (some centres unmarked) [TS534], in that order: greater than 5.00, less than 25% and greater than 75%.
`C[C@H](c1cccc2ccccc12)N1CCC(C(=O)NCc2cc(F)cc(NC(=O)N3CCN(CC4CCN(c5ccc6c(c5)C(=O)N(C5CCC(=O)NC5=O)C6=O)CC4)CC3)c2)CC1` (some centres unmarked) [TS535] gave a pIC50 at SARS-CoV-2 PLpro of 4.60 to 5.00. Besides, in the assay on SARS-CoV-2 [1], the inhibition at 10 µM was less than 25% and the inhibition at 50 µM is less than 75%.
In the same order, the values of `C[C@H](c1cccc2ccccc12)N1CCC(C(=O)NCc2cc(F)cc(NC(=O)N3CCN(CCCCC(=O)N4CCN(c5ccc(C6CCC(=O)NC6=O)cc5)CC4)CC3)c2)CC1` (some centres unmarked) [TS551] are greater than 5.00, less than 25% and less than 50%.
In the same order, the values of `C[C@H](c1cccc2ccccc12)N1CCC(C(=O)NCc2cc(F)cc(NC(=O)N3CCN(CCCCC(=O)N4CCN(c5ccc(N6CCC(=O)NC6=O)cc5)CC4)CC3)c2)CC1` [TS553] are greater than 5.00, less than 25% and less than 25%.
In the same order, the values of `C[C@H](c1cccc2ccccc12)N1CCC(C(=O)NCc2cc(F)cc(NC(=O)N3CCN(CCCCNC(=O)COc4ccc(N5CCC(=O)NC5=O)cc4)CC3)c2)CC1` [TS557] are greater than 5.00, less than 0% and less than 0%.
As to `Cc1ncsc1-c1ccc(CNC(=O)[C@@H]2C[C@@H](O)CN2C(=O)[C@@H](NC(=O)CCCCN2CCN(C(=O)Nc3cc(F)cc(CNC(=O)C4CCN([C@H](C)c5cccc6ccccc56)CC4)c3)CC2)C(C)(C)C)cc1` [TS558], on SARS-CoV-2 PLpro, the pIC50 is greater than 5.00. Moreover, in the assay on SARS-CoV-2 [1], the inhibition at 10 µM is less than 0% and the inhibition at 50 µM is less than 0%.
For the compound `Cc1ccc(C(=O)NCCCCN2CCN(C(=O)Nc3cc(F)cc(CNC(=O)C4CCN([C@H](C)c5cccc6ccccc56)CC4)c3)CC2)cc1N1CCC(=O)NC1=O` [TS567], the pIC50 against SARS-CoV-2 PLpro was greater than 5.00. In the assay on SARS-CoV-2 [1], the inhibition at 10 µM is less than 0% and the inhibition at 50 µM was less than 0%.
For `C[C@H](c1cccc2ccccc12)N1CCC(C(=O)NCc2cc(F)cc(NC(=O)N3CCN(CCOCCOCCC(=O)N4CCN(c5ccc(C6CCC(=O)NC6=O)cc5)CC4)CC3)c2)CC1` (some centres unmarked) [TS568], on SARS-CoV-2 PLpro, the pIC50 is greater than 5.00. Also, in the assay on SARS-CoV-2 [1], the inhibition at 10 µM was less than 25% and the inhibition at 50 µM was less than 75%.
In the same order, the values of `C[C@H](c1cccc2ccccc12)N1CCC(C(=O)NCc2cc(F)cc(NC(=O)N3CCN(CCOCCOCCC(=O)N4CCN(c5ccc(N6CCC(=O)NC6=O)cc5)CC4)CC3)c2)CC1` [TS569] are greater than 5.00, less than 0% and less than 25%.
